According to patent publication US12247018B2, “Aryl-n-aryl derivatives for treating a RNA virus infection” (ABIVAX, priority 2018, dated 2025):

Assays:
[1] = system: CHIKV strain of La Réunion outbreak (LR2006-OPY1) with GFP modification in 5′; test: microbe, parasite or virus in culture; type: cell-based, Chikungunya virus; conditions: infected HEK293T cells; for inhibition at 1 µM / IC50: Chikungunya virus, HEK-293T; for inhibition at 1 µM: compounds at 1 μM, MOI 0.1, 22 h, values above 100 lowered to 100, read-out: % CHIKV Inhibition Mean (n = 2); for IC50: second round of experiments
Procedure: The ability of the compounds to inhibit viral replication was assessed with an experiment in which infected cells were treated by compounds of formula (Ic) at 1 μM. As a positive control for inhibition of Chikungunya, Ribavirin was used. Toxicity of the compounds was assessed in parallel.
Human embryonic kidney cells 293T (HEK293T, CRL-11268) were maintained in Dulbecco's modified Eagle's Medium (DMEM, 31966-021, Thermo Fisher Scientific) supplemented with 10% of fetal bovine serum (FBS), penicillin and streptomycin. After removal of the medium, cells were washed with Ca^2+ and Mg^2+-free salt solution to remove all traces of serum. After aspiration of wash solution, cells were dissociated with 0.25% Trypsin-EDTA solution and incubated 30 s at least in 37° C. incubator. Concentration of cell suspension was determined by an automatic cell counter (EVE, NanoEntek) and, if needed, adjusted to 0.33×10^6 cells/mL with DMEM medium supplemented with 10% FBS.
100 μL of the cell suspension were dispatched in a ViewPlate-96 Black (6005182, PerkinElmer) and in a transparent 96-well cell culture plate (655180, Greiner bio-one). After an incubation for 24 h at 37° C. under 5% of CO2, compounds were added at the proper concentration.
An intermediate dilution was prepared with DMSO (D8418, Sigma) at 2 mM in a 96-well V-bottom microplate from the stock solution:
An intermediate dilution was prepared with DMSO (D8418, Sigma) at 25 mM in a 96-well V-bottom microplate from the stock solution:
Perform serial dilution in 2 μL of DMSO 13 times to reach 0.0015 mM. Proceed as follows in table III:
For both screen and determination of IC50, 1 μL of each solution was added in a 1 mL Masterblock 96 wells (Greiner bio-one, 780261) containing 1 mL of DMEM medium. As a positive control, 5 μL of a 80 mM Ribavirin solution (R9644, Sigma) is added to 1 mL of DMEM. On the other hand, DMSO is used as a negative control.
[…]. Vector Borne Zoonotic Dis. 2006; 6 (4)). This modified virus was used to infect cells at MOI 0.1. […].
Medium was removed after 22 h at 37° C. under 5% of CO2 and cells were washed as described above. 60 μL of RIPA buffer (50 mM Tris-HCl pH8, 100 mM NaCl, 1 mM MgCl2, 1% Triton X-100) was added to cells and incubated for at least 20 min before reading fluorescence signal. Pierce 660 nm Protein Assay Reagent (22660, Thermo scientific) was used to normalize fluorescence signal by protein quantity.
• A first round of experiments has been performed wherein the results are expressed as inhibition percentage, which is calculated as follows, through the following steps: • 1. Fluorescence intensity (FI)/Absorbance 660 nm (A660)=A • This ratio allows considering the infection (GFP virus) to the protein amount. • 2. A′=A−background noise of non-infected plate, • 3. B=Fluorescence intensity (FI)/Absorbance 660 nm (A660) of infected but non treated plates, • 4. C=A′/B, which is then converted as the percentage of infection after treatment, compared to non-treated sample, and subsequently as the infection percentage. For instance, a value of 100 in Table IV here below means that, after treatment, the signal attributed to GFP fluorescence is abolished, which is correlated to the absence of infection. • 5. C′=100-C
This value corresponds to the inhibition's percentage.
The following Table IV encompasses said C′ value for some compounds, as calculated above with a mean of 2 experiments, and corresponding standard deviation.
Some values were originally above 100. In these cases, the value has been lowered to 100. This means that some molecules also have an impact on the viability of the cells. In other words, the A value may be lower than the background noise.
Moreover, for each measure, the test was performed with Ribavirin as control. The value of the inhibition percentage was checked, giving 100%.

[2] = system: RSV A2; test: RSV inhibition (cytopathic effect) in HEp-2 cells using Viral ToxGlo assay; type: cell-based; conditions: human respiratory syncytial virus; RSV A2, HEp-2 cells, MOI 0.5, 72 h p.i.
Procedure: Protocol for Screening Antiviral Compounds for RSV Inhibition and Cytotoxicity Using Viral ToxGlo Assay
HEp-2 cells were maintained in Eagle's minimum essential medium (EMEM) with Earle's BSS adjusted to contain 2 mM L-glutamine, 10% fetal bovine serum, 100 U/ml penicillin and 100 μg/ml streptomycin. For the purposes of the screening assay they were grown to 90% confluency, trypsinized and recovered. The trypsin was neutralised with cell culture media and cells were centrifuged at 150×g for 5 minutes before discarding the supernatant and resuspending cell pellet in assay media (EMEM with Earle's BSS adjusted to contain 2 mM L-glutamine, 2% fetal bovine serum and 100 U/ml penicillin and 100 μg/ml streptomycin). The cells were seeded into white clear-bottomed cell culture plates at a density of 1.5×10^4 cells/well in 50 μl and 4×10^3 cells/well in 25 μl for 96 well plates and 384 well plates respectively. For the media/background control column assay media only was added. Cell plates were placed in a humid chamber and incubated overnight at 37° C./5% CO2. After overnight incubation cells were checked for confluency and healthy appearance.
Test articles were made up at 10× test concentration in a maximum DMSO concentration of 10% (final assay concentration maximal 1% DMSO) and added to the cell plates in volumes of 10 μl for 96 well plates and 5 μl for 384 well plates. For cell control and virus control wells the test article solvent only was added. Virus or assay media for cytotoxicity test wells and media/cell control wells was added immediately after test articles at an MOI of 0.5, 40 or 20 μl for 96 and 384 well plates respectively. Virus suspension was prepared by thawing RSV A2 frozen stocks and diluting to the required concentration of plaque forming units in assay media on ice.
Cell plates were further incubated inside a humid chamber for 72 h p.i at 37° C./5% CO2. After the incubation period cells were observed under the microscope to check for characteristic cytopathic effect in virus control wells and healthy cells in the cell control wells. After plates were adjusted to room temperature 20/40 μl Viral ToxGlo (Promega) was added to each well of the 384/96 well cell plates. Plates were incubated at room temperature, protected from light on a plate rocker for 20 minutes before measuring the luminescence on a spectrophotometer (Biotek Synergy HTX).

NC(=O)c1ncn([C@@H]2O[C@H](CO)[C@@H](O)[C@H]2O)n1 [Ribavirin, reference compound]
inhibition percentage (Ribavirin positive control) ([1]; Ribavirin as control in each measure): 100%

O=C(N=C1NCCCN1)c1ccc(Nc2cccc(C(=O)NCCC3CCCC3)c2)cc1 [compound 22, N-(2-cyclopentylethyl)-3-((4-((tetrahydropyrimidin-2(1H)-ylidene)carbamoyl)phenyl)amino)benzamide]
inhibition at 1 µM [1]: 94% | IC50 [1]: 100 to 400 nM

CC(C)CCNC(=O)c1cccc(Nc2ccc(C(=O)N=C3NCCCN3)cc2)c1 [compound 23, N-isopentyl-3-((4-((tetrahydropyrimidin-2(1H)-ylidene)carbamoyl)phenyl)amino)benzamide]
inhibition at 1 µM [1]: 98% | IC50 [1]: 100 to 400 nM

O=C(N=C1NCCCN1)c1ccc(Nc2cccc(C(=O)NCCC3CCCCC3)c2)cc1 [compound 24, N-(2-cyclohexylethyl)-3-((4-((tetrahydropyrimidin-2(1H)-ylidene)carbamoyl)phenyl)amino)benzamide]
inhibition at 1 µM [1]: 100% | IC50 [1]: 100 to 400 nM

O=C(N=C1NCCCN1)c1ccc(Nc2cccc(C(=O)NCCC3CCC3)c2)cc1 [compound 26, N-(2-cyclobutylethyl)-3-((4-((tetrahydropyrimidin-2(1H)-ylidene)carbamoyl)phenyl)amino)benzamide]
inhibition at 1 µM [1]: 97%

Cc1cc(C(=O)N=C2NCCCN2)ccc1Nc1cccc(C(=O)NCCC(C)C)c1 [compound 27, 4-((3-(isopentylcarbamoyl)phenyl)amino)-3-methyl-N-(tetrahydropyrimidin-2(1H)-ylidene)benzamide]
inhibition at 1 µM [1]: 96% | EC50 [2]: 365 nM

Cc1cc(C(=O)N=C2NCCCN2)ccc1Nc1cccc(C(=O)NCCC2CCCC2)c1 [compound 28, 4-((3-((2-cyclopentylethyl)carbamoyl)phenyl)amino)-3-methyl-N-(tetrahydropyrimidin-2(1H)-ylidene)benzamide]
inhibition at 1 µM [1]: 97% | EC50 [2]: 308 nM

Cc1cc(C(=O)N=C2NCCCN2)ccc1Nc1cccc(NC(=O)CCC2CCCCC2)c1 [compound 153, 4-{[3-(3-cyclohexylpropanamido)phenyl]amino}-N-(1,3-diazinan-2-ylidene)-3-methylbenzamide]
EC50 [2]: 704 nM

CC1(C)CN1C(=O)c1cccc(Nc2ccc(C(=O)N=C3NCCCN3)cc2C2CC2)c1 [compound 154, 3-cyclopropyl-N-(1,3-diazinan-2-ylidene)-4-{[3-(2,2-dimethylaziridine-1-carbonyl)phenyl]amino}benzamide]
EC50 [2]: 917 nM

O=C(N=C1NCCCN1)c1ccc(Nc2cccc(C(=O)NC3CCOC3)c2)c(C2CC2)c1 (stereo not shown) [compound 155, 3-cyclopropyl-N-(1,3-diazinan-2-ylidene)-4-({3-[(oxolan-3-yl)carbamoyl]phenyl}amino)benzamide]
EC50 [2]: 949 nM

Cc1cc(C(=O)N=C2NCCCN2)ccc1Nc1cccc(OCCCC2CCCCC2)c1 [compound 156, 4-{[3-(3-cyclohexylpropoxy)phenyl]amino}-N-(1,3-diazinan-2-ylidene)-3-methylbenzamide]
EC50 [2]: 966 nM

O=C(N=C1NCCCN1)c1ccc(Nc2cccc(C(=O)NC3CCOCC3)c2)c(C2CC2)c1 [compound 157, 3-cyclopropyl-N-(1,3-diazinan-2-ylidene)-4-({3-[(oxan-4-yl)carbamoyl]phenyl}amino)benzamide]
EC50 [2]: 1030 nM

O=C(N=C1NCCCN1)c1ccc(Nc2cccc(C(=O)N3CCOCC3)c2)c(C2CC2)c1 [compound 158, 3-cyclopropyl-N-(1,3-diazinan-2-ylidene)-4-{[3-(morpholine-4-carbonyl)phenyl]amino}benzamide]
EC50 [2]: 1030 nM

O=C(N=C1NCCCN1)c1ccc(Nc2ccccc2C(=O)NCCC(F)(F)F)c(C2CC2)c1 [compound 159, 3-cyclopropyl-N-(1,3-diazinan-2-ylidene)-4-({2-[(3,3,3-trifluoropropyl)carbamoyl]phenyl}amino)benzamide]
EC50 [2]: 1100 nM

O=C1CCN/C(=N\C(=O)c2ccc(Nc3cccc(OCC4COCCO4)c3)c(C3CC3)c2)N1 (stereo not shown) [compound 161, 3-cyclopropyl-4-({3-[(1,4-dioxan-2-yl)methoxy]phenyl}amino)-N-[(2E)-4-oxo-1,3-diazinan-2-ylidene]benzamide]
EC50 [2]: 1310 nM

CC1CN1C(=O)c1cccc(Nc2ccc(C(=O)N=C3NCCCN3)cc2C2CC2)c1 (stereo not shown) [compound 162, 3-cyclopropyl-N-(1,3-diazinan-2-ylidene)-4-{[3-(2-methylaziridine-1-carbonyl)phenyl]amino}benzamide]
EC50 [2]: 1370 nM

CN(C)C(=O)c1cccc(Nc2ccc(C(=O)N=C3NCCCN3)cc2C2CC2)c1 [compound 163, 3-cyclopropyl-N-(1,3-diazinan-2-ylidene)-4-{[3-(dimethylcarbamoyl)phenyl]amino}benzamide]
EC50 [2]: 1470 nM

O=C1CCN/C(=N\C(=O)c2ccc(Nc3cccc(C(=O)N4CCOCC4)c3)c(C3CC3)c2)N1 [compound 164, 3-cyclopropyl-4-{[3-(morpholine-4-carbonyl)phenyl]amino}-N-[(2E)-4-oxo-1,3-diazinan-2-ylidene]benzamide]
EC50 [2]: 1500 nM

Cc1c(Nc2ccc(C(=O)N=C3NCCCN3)cc2C2CC2)cccc1C(=O)NC1(C#N)CC1 [compound 165, 4-({3-[(1-cyanocyclopropyl)carbamoyl]-2-methylphenyl}amino)-3-cyclopropyl-N-(1,3-diazinan-2-ylidene)benzamide]
EC50 [2]: 1760 nM

O=C(N=C1NCCCN1)c1ccc(Nc2cccc(C(=O)NC3COC3)c2)c(C2CC2)c1 [compound 166, 3-cyclopropyl-N-(1,3-diazinan-2-ylidene)-4-({3-[(oxetan-3-yl)carbamoyl]phenyl}amino)benzamide]
EC50 [2]: 2740 nM
